# Experimental data from US20040102514A1 (priority 2003, published 2004).
# Entries after “also recorded” stand apart in the source; their conditions may differ.
# How the values were obtained:
# Sprague-Dawley rats [1] = conditions: rat, in vivo
# weanling pigs = conditions: pig, in vivo
# Sprague-Dawley rats [2] = conditions: rat, in vivo; remark: listed apart in the source
compound,measurement,setting,value
"7α,15-benzylidene-9α,12β-dimethyltrichothecan-3α,8α,12α-triol [EN139502]",delay before intensified fasting pattern,Sprague-Dawley rats [1],approximately 5 min
same,effect on fasting pattern of gut motility,Sprague-Dawley rats [1],intensify or enhance the fasting pattern
same,induction of fed pattern of gut motility,Sprague-Dawley rats [1],did not induce the fed pattern gut motility
"7α, 15-benzylidene-3α,8αdiacetoxy-9α,12β-dimethyltrichothecan-12α-ol [EN139508]",duration of induced pattern,Sprague-Dawley rats [1],approximately 30 minutes
same,induction of fed pattern of gut motility,Sprague-Dawley rats [1],induced a dose-dependent fed pattern of gut motility
same,onset time of action (duodenal site D1),Sprague-Dawley rats [1],approximately 60 seconds
same,pattern of gut motor activity induced,Sprague-Dawley rats [1],induced a dose-dependent fed pattern of gut motility
same,time of onset of action after administration,Sprague-Dawley rats [1],approximately 60 seconds
"CC1=C[C@H]2O[C@@H]3[C@H](O)C[C@](C)([C@@]2(CO)[C@H](O)C1=O)[C@]31CO1 [DON, 3α,7α, 15-trihydroxy-12,13-epoxy-trichothec-9-en-8-one]",emesis,weanling pigs,some emesis occurred
same,food consumption in the Day 1 AM meal following the treat,weanling pigs,decreased food consumption
same,persistence of effect on food consumption at Day 1 PM and following meals,weanling pigs,wore off by the next meal
same,induction of fed pattern of gut motility,Sprague-Dawley rats [1],induced the fed pattern of gut motility
same,food consumption,Sprague-Dawley rats [2],immediate and sustained reduction; also recorded: concentration-dependant reduction; also recorded: decrease
same,weight gain,Sprague-Dawley rats [2],immediate and sustained reduction; also recorded: concentration-dependant reduction; also recorded: decrease
"C[C@@H]1C[C@H]2O[C@@H]3[C@H](O)C[C@](C)([C@]24COC(c2ccccc2)O[C@@H]4C1=O)[C@@]3(C)O (stereo partly drawn) [EN139522, 7α,15-benzylidene-9α, 12β-dimethyl-3α, 12α-dihydroxytricocethcan-8-one]",duration of action (fed pattern),Sprague-Dawley rats [1],35 min
same,induction of fed pattern of gut motility,Sprague-Dawley rats [1],induce a classic fed pattern
same,time of onset of action after administration,Sprague-Dawley rats [1],20 s
